Data reported in ChEMBL document CHEMBL1201862, “PubChem BioAssay data set” (2004).
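Grown in 96-well plates, cells were treated for 48 hours with each compound at five concentrations. Insufficient inhibition: endpoint recorded as highest concentration tested. GI50 = concentration required for 50% inhibition of growth.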 Activity calls are given as the source filed them. Rule as the data show it: active = GI50 up to about 1.1 µM and inactive = higher.

Key:
Test in all cases: NCI tumour cell line growth inhibition, 48 h
[1] = tested on: 786-0
[2] = tested on: A498
[3] = tested on: A549
[4] = tested on: ACHN
[5] = tested on: BT-549
[6] = tested on: CAKI-1
[7] = tested on: CCRF-CEM
[8] = tested on: COLO 205
[9] = tested on: DU-145
[10] = tested on: EKVX
[11] = tested on: HCC 2998
[12] = tested on: HCT-116
[13] = tested on: HCT-15
[14] = tested on: HL-60
[15] = tested on: HOP-62
[16] = tested on: HOP-92
[17] = tested on: HT-29
[18] = tested on: Hs-578T
[19] = tested on: IGROV-1
[20] = tested on: K562
[21] = tested on: KM12
[22] = tested on: LOX IMVI
[23] = tested on: M14
[24] = tested on: MCF7
[25] = tested on: MDA-MB-231
[26] = tested on: MDA-MB-435
[27] = tested on: MDA-N
[28] = tested on: MOLT-4
[29] = tested on: Malme-3M
[30] = tested on: NCI-H226
[31] = tested on: NCI-H23
[32] = tested on: NCI-H460
[33] = tested on: NCI/ADR-RES
[34] = tested on: OVCAR-3
[35] = tested on: OVCAR-4
[36] = tested on: OVCAR-5
[37] = tested on: OVCAR-8
[38] = tested on: PC-3
[39] = tested on: RPMI-8226
[40] = tested on: RXF 393
[41] = tested on: SF-268
[42] = tested on: SF-295
[43] = tested on: SF-539
[44] = tested on: SK-MEL-28
[45] = tested on: SK-MEL-2
[46] = tested on: SK-MEL-5
[47] = tested on: SK-OV-3
[48] = tested on: SN12C
[49] = tested on: SNB-19
[50] = tested on: SNB-75
[51] = tested on: SR
[52] = tested on: SW-620
[53] = tested on: T47D
[54] = tested on: TK-10
[55] = tested on: U-251
[56] = tested on: UACC-257
[57] = tested on: UACC-62
[58] = tested on: UO-31
[59] = tested on: NCI-H522

In the case of CC1(c2ccc(F)cc2)CC(c2ccc(F)cc2)=C(C#N)C(=C(C#N)C#N)N1 (stereo not given), the GI50 [1] is reported as 15.3 µM (inactive), the GI50 [2] is reported as 19.6 µM (inactive) and the GI50 [3] is reported as 19.1 µM (inactive). For the same molecule, the GI50 [4] was 16.6 µM (inactive), the GI50 [5] was 24.9 µM (inactive) and the GI50 [6] was 16 µM (inactive). The GI50 [7] was 2.11 µM (inactive), the GI50 [8] was 5.56 µM (inactive) and the GI50 [9] was 15.2 µM (inactive). For the same molecule, the GI50 [10] was 17 µM (inactive), the GI50 [11] was 14.5 µM (inactive) and the GI50 [12] was 15.6 µM (inactive). The GI50 [13] was 14.8 µM, the GI50 [14] was 6.31 µM (inactive) and the GI50 [15] was 19.7 µM (inactive). For the same molecule, the GI50 [16] was 12.6 µM (inactive), the GI50 [17] was 15.4 µM (inactive) and the GI50 [18] was 23.3 µM (inactive). The GI50 [19] was 17.1 µM (inactive), the GI50 [20] was 11 µM (inactive) and the GI50 [21] was 15 µM (inactive). For the same molecule, the GI50 [22] was 18.6 µM (inactive), the GI50 [23] was 18.7 µM (inactive) and the GI50 [24] was 14.5 µM (inactive). For the same molecule, the GI50 [25] was 21.2 µM (inactive), the GI50 [26] was 16.6 µM (inactive) and the GI50 [27] was 17.4 µM (inactive). The GI50 [28] was 14.4 µM (inactive), the GI50 [29] was 18.7 µM (inactive) and the GI50 [30] was 21.2 µM (inactive). For the same molecule, the GI50 [31] was 17.3 µM (inactive), the GI50 [32] was 18 µM (inactive) and the GI50 [33] was 20.5 µM (inactive). The GI50 [34] was 5.98 µM (inactive), the GI50 [35] was 13.4 µM (inactive) and the GI50 [36] was 19.8 µM (inactive). For the same molecule, the GI50 [37] was 20.1 µM (inactive), the GI50 [38] was 16.3 µM (inactive) and the GI50 [39] was 5.55 µM (inactive). The GI50 [40] was 12.8 µM (inactive), the GI50 [41] was 15.8 µM (inactive) and the GI50 [42] was 16.9 µM (inactive). For the same molecule, the GI50 [43] was 25.7 µM (inactive), the GI50 [44] was 24 µM (inactive) and the GI50 [45] was 16 µM (inactive). For the same molecule, the GI50 [46] was 14.1 µM (inactive), the GI50 [47] was 21.8 µM (inactive) and the GI50 [48] was 16.7 µM (inactive). For the same molecule, the GI50 [49] was 17.4 µM (inactive), the GI50 [50] was 19.8 µM (inactive) and the GI50 [51] was 14.9 µM (inactive). The GI50 [52] was 7.57 µM (inactive), the GI50 [53] was 13.3 µM (inactive) and the GI50 [54] was 18.1 µM (inactive). For the same molecule, the GI50 [55] was 16.6 µM (inactive), the GI50 [56] was 15.3 µM (inactive) and the GI50 [57] was 14.3 µM (inactive). For the same molecule, the GI50 [58] was 17.1 µM (inactive).
For CC(C)=CCNc1ncnc2c1ncn2CCC(=O)O, the GI50 [1] was > 100 µM (inactive), the GI50 [2] was > 100 µM (inactive) and the GI50 [3] was > 100 µM (inactive). For the same molecule, the GI50 [4] was > 100 µM (inactive), the GI50 [5] was > 100 µM (inactive) and the GI50 [7] was > 100 µM (inactive). For the same molecule, the GI50 [8] was > 100 µM (inactive), the GI50 [9] was > 100 µM (inactive) and the GI50 [11] was > 100 µM (inactive). For the same molecule, the GI50 [12] was > 100 µM (inactive), the GI50 [13] was greater than 100 µM and the GI50 [14] was > 100 µM (inactive). For the same molecule, the GI50 [15] was > 100 µM (inactive), the GI50 [16] was > 100 µM (inactive) and the GI50 [17] was > 100 µM (inactive). The GI50 [18] was > 100 µM (inactive), the GI50 [19] was > 100 µM (inactive) and the GI50 [20] was > 100 µM (inactive). For the same molecule, the GI50 [21] was > 100 µM (inactive), the GI50 [22] was > 100 µM (inactive) and the GI50 [23] was > 100 µM (inactive). For the same molecule, the GI50 [24] was > 100 µM (inactive), the GI50 [25] was > 100 µM (inactive) and the GI50 [26] was > 100 µM (inactive). The GI50 [27] was > 100 µM (inactive), the GI50 [28] was > 100 µM (inactive) and the GI50 [29] was > 100 µM (inactive). For the same molecule, the GI50 [30] was > 100 µM (inactive), the GI50 [31] was > 100 µM (inactive) and the GI50 [32] was > 100 µM (inactive). For the same molecule, the GI50 [59] was > 100 µM (inactive), the GI50 [33] was > 100 µM (inactive) and the GI50 [34] was > 100 µM (inactive). For the same molecule, the GI50 [35] was > 100 µM (inactive), the GI50 [36] was > 100 µM (inactive) and the GI50 [37] was > 100 µM (inactive). For the same molecule, the GI50 [38] was > 100 µM (inactive), the GI50 [39] was > 100 µM (inactive) and the GI50 [40] was > 100 µM (inactive). The GI50 [41] was > 100 µM (inactive), the GI50 [42] was > 100 µM (inactive) and the GI50 [43] was > 100 µM (inactive). The GI50 [44] was > 100 µM (inactive), the GI50 [46] was > 100 µM (inactive) and the GI50 [47] was > 100 µM (inactive). For the same molecule, the GI50 [48] was > 100 µM (inactive), the GI50 [49] was > 100 µM (inactive) and the GI50 [50] was > 100 µM (inactive). For the same molecule, the GI50 [51] was > 100 µM (inactive), the GI50 [52] was > 100 µM (inactive) and the GI50 [53] was > 100 µM (inactive). For the same molecule, the GI50 [54] was > 100 µM (inactive), the GI50 [55] was > 100 µM (inactive) and the GI50 [57] was > 100 µM (inactive). The GI50 [58] was > 100 µM (inactive).
For COC(=O)/C=C\n1nc(Br)c(=O)[nH]c1=O, the GI50 [2] was > 100 µM (inactive), the GI50 [3] was > 100 µM (inactive) and the GI50 [4] was > 100 µM (inactive). For the same molecule, the GI50 [5] was > 100 µM (inactive), the GI50 [6] was > 100 µM (inactive) and the GI50 [7] was > 100 µM (inactive). For the same molecule, the GI50 [8] was > 100 µM (inactive), the GI50 [9] was > 100 µM (inactive) and the GI50 [10] was > 100 µM (inactive). For the same molecule, the GI50 [11] was > 100 µM (inactive), the GI50 [13] was 85.7 µM and the GI50 [14] was 66.4 µM (inactive). For the same molecule, the GI50 [15] was > 100 µM (inactive), the GI50 [16] was > 100 µM (inactive) and the GI50 [17] was > 100 µM (inactive). The GI50 [18] was > 100 µM (inactive), the GI50 [19] was > 100 µM (inactive) and the GI50 [20] was > 100 µM (inactive). The GI50 [21] was > 100 µM (inactive), the GI50 [22] was > 100 µM (inactive) and the GI50 [23] was > 100 µM (inactive). For the same molecule, the GI50 [24] was > 100 µM (inactive), the GI50 [25] was > 100 µM (inactive) and the GI50 [26] was > 100 µM (inactive). For the same molecule, the GI50 [27] was > 100 µM (inactive), the GI50 [29] was > 100 µM (inactive) and the GI50 [31] was > 100 µM (inactive). For the same molecule, the GI50 [32] was > 100 µM (inactive), the GI50 [59] was 35.1 µM (inactive) and the GI50 [33] was > 100 µM (inactive). The GI50 [34] was > 100 µM (inactive), the GI50 [35] was > 100 µM (inactive) and the GI50 [36] was > 100 µM (inactive). The GI50 [37] was > 100 µM (inactive), the GI50 [38] was > 100 µM (inactive) and the GI50 [39] was > 100 µM (inactive). For the same molecule, the GI50 [40] was 83.9 µM (inactive), the GI50 [41] was > 100 µM (inactive) and the GI50 [43] was > 100 µM (inactive). For the same molecule, the GI50 [44] was > 100 µM (inactive), the GI50 [45] was > 100 µM (inactive) and the GI50 [46] was > 100 µM (inactive). The GI50 [48] was > 100 µM (inactive), the GI50 [49] was > 100 µM (inactive) and the GI50 [50] was > 100 µM (inactive). For the same molecule, the GI50 [51] was > 100 µM (inactive), the GI50 [52] was > 100 µM (inactive) and the GI50 [53] was > 100 µM (inactive). For the same molecule, the GI50 [54] was > 100 µM (inactive), the GI50 [55] was > 100 µM (inactive) and the GI50 [56] was > 100 µM (inactive). For the same molecule, the GI50 [58] was > 100 µM (inactive).
